Data published in the supplement of paper PMC11061612.

Experiments:
Experiment in all cases: combination Emax (second highest fraction inhibited in the dose matrix, 72 h); higher = more inhibition; extreme values may be limits of the assay
[1] = system: NCI-H3118 (Head and Neck Carcinoma)
Outline: (§1)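 Cell lines in DMEM/F12 or RPMI with 10% FBS were plated in 1536-well plates, held 24 hours at 37°C, 5% CO2, then given two-drug dose matrices for 72 hours (DMSO typically 0.2%). Viability was read by CellTiter-Glo 2.0 luminescence and scaled as inhibition from 0 (vehicle wells) to 1 (blank wells). Combination Emax is the second-highest inhibition in the matrix; Bliss excess is observed combination effect minus expected EA + EB − EA·EB, EA and EB being single-agent effects.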

[2] = system: GAK (Melanoma)
Outline: as §1

[3] = system: MM1S (Plasma Cell Myeloma)
Outline: as §1

[4] = system: T47D (Breast Carcinoma)
Outline: as §1

[5] = system: NCI-H2373 (Mesothelioma)
Outline: as §1

[6] = system: SNU-423 (Hepatocellular Carcinoma)
Outline: as §1

[7] = system: NB1 (Neuroblastoma)
Outline: as §1

[8] = system: NAMALWA (Burkitt's Lymphoma)
Outline: as §1

[9] = system: SCC-4 (Oral Cavity Carcinoma)
Outline: as §1

[10] = system: AM-38 (Glioblastoma)
Outline: as §1

[11] = system: Raji (Burkitt's Lymphoma)
Outline: as §1

[12] = system: PL4 (Pancreatic Carcinoma)
Outline: as §1

[13] = system: LCLC-103H (Non-Small Cell Lung Carcinoma)
Outline: as §1

[14] = system: KP-4 (Pancreatic Carcinoma)
Outline: as §1

[15] = system: MS-1 (Small Cell Lung Carcinoma)
Outline: as §1

[16] = system: RCC-JW (Kidney Carcinoma)
Outline: as §1

[17] = system: SK-CO-1 (Colorectal Carcinoma)
Outline: as §1

[18] = system: SiHa (Cervical Carcinoma)
Outline: as §1

[19] = system: T84 (Colorectal Carcinoma)
Outline: as §1

[20] = system: NCI-H596 (Other Solid Carcinomas)
Outline: as §1

SMILES	combination Emax [1]	combination Emax [2]	combination Emax [3]	combination Emax [4]	combination Emax [5]	combination Emax [6]	combination Emax [7]	combination Emax [8]	combination Emax [9]	combination Emax [10]	combination Emax [11]	combination Emax [12]	combination Emax [13]	combination Emax [14]	combination Emax [15]	combination Emax [16]	combination Emax [17]	combination Emax [18]	combination Emax [19]	combination Emax [20]
Cc1c2c(nn1C)CSCc1cc(n(C)n1)CSc1cc(c3ccccc3c1)OCCCc1c(C(=O)O)n(C)c3c-2c(Cl)ccc13 [AZD5991] + CCN(CCO)CCCOc1ccc2c(Nc3cc(CC(=O)Nc4cccc(F)c4)[nH]n3)ncnc2c1 [AZD2811] (first compound max 1 µM, 7x7, partner max 1 µM)	0.625	0.314	0.982	0.708	0.267	0.335	0.694	0.98	0.663	0.32	0.776	0.474	0.371	0.667	0.48	0.251	0.73	0.368	0.177	
CC(=O)c1c(C)c2cnc(Nc3ccc(N4CCNCC4)cn3)nc2n(C2CCCC2)c1=O [Palbociclib] + CN(CC[C@H](CSC1=CC=CC=C1)NC2=C(C=C(C=C2)S(=O)(=O)NC(=O)C3=CC=C(C=C3)N4CCC(CC4)[C@H](C5=CC=CC=C5C6=CC=C(C=C6)Cl)O)S(=O)(=O)C(F)(F)F)CCO [AZD4320] (first compound max 10 µM, 7x7, partner max 1 µM)			0.964	0.344	0.223		0.597			0.872	0.455	0.483						0.104		0.521
CCc1c2c(nc3ccc(O)cc13)-c1cc3c(c(=O)n1C2)COC(=O)[C@]3(O)CC [SN-38] + O=C(c1cc(Cc2n[nH]c(=O)c3ccccc23)ccc1F)N1CCN(C(=O)C2CC2)CC1 [Olaparib] (first compound max 0.3 µM, 7x7, partner max 10 µM)	0.396	0.472		0.625	0.801	0.495		0.986	0.847	0.882	0.956	0.903	0.54	0.817	0.724	0.616	0.798	0.32	0.528	
C[C@@H](c1ccc2nccn2c1)n1nnc2ncc(-c3cnn(C)c3)nc21 [Savolitinib] + CN(CC[C@H](CSC1=CC=CC=C1)NC2=C(C=C(C=C2)S(=O)(=O)NC(=O)C3=CC=C(C=C3)N4CCC(CC4)[C@H](C5=CC=CC=C5C6=CC=C(C=C6)Cl)O)S(=O)(=O)C(F)(F)F)CCO [AZD4320] (first compound max 1 µM, 7x7, partner max 1 µM)			0.974	0.252	0.0896		0.159			0.613	0.173	0.472						0.224		0.275
